{"source": "patent US3955959A", "about": "“Herbicide for use in transplanted rice” (priority 1974, dated 1976)", "key": {"[1]": {"test_system": "Ea (Eleocharis acicularis)", "experiment": "Example 5 field test, weed control, JAAPR, Japan", "format": "in vivo", "conditions": "1.5 kg/ha, 7 DAT"}, "[2]": {"test_system": "Broadleaf: Mv, Sz (Monochoria vaginalis, Sphenoclea zeylanica)", "experiment": "Example 3 field test on Dapog rice, weed control, Munoz, Philippines", "format": "in vivo, Monochoria vaginalis and Sphenoclea zeylanica", "conditions": "obs. 42 DAT", "excerpt": "(§1) Treatments were replicated four times."}, "[3]": {"test_system": "transplanted rice (ordinary and infant seedlings)", "experiment": "Example 5 field test, rice yield", "format": "in vivo", "conditions": "1.5 kg/ha, 7 DAT", "description": "(§2) In the tests described in the tables below, the herbicides were formulated and used in granular form in conventional manner. […] The commercial herbicide used was a granular product having 5% active ingredient.\n(§3) In the field tests of the herbicide of this invention with transplanted rice, the rice seedlings were grown in conventional manner, by seeding the rice in a typical seedbed of sandy loam to clay soil of the country wherein the test was conducted. For laboratory and greenhouse work the seedlings were obtained by seeding rice in a mixture of soil, e.g., Ray silt loam, and peat in wood flats. For purposes of testing the herbicides on younger rice seedlings (infant or Dapog) the rice was usually allowed to grow for 6-15 days before lifting for transplanting. Older (ordinary) rice plants were usually grown for a period of about 2-3 weeks, or as much as about 7 weeks before lifting. Since the period of growth is dependent upon climatic conditions, a better measure of when to transplant the rice seedling is the leaf stage of growth; for infant or Dapog rice the seedling is lifted at the 1.5-2 leaf stage of growth, and for ordinary seedlings at the 2.5-5 leaf stage. The seedlings were then transplanted to the test plots for evaluation of the herbicide for injury against weed species present with the transplanted rice. The herbicides were then applied to the growth medium of the weeds and transplant rice, either preemergent or postemergent with respect to the weeds and postemergent with respect to the transplanted rice. Application times are designated in the tables as \"DAT\", meaning \"days after transplant\". Application rates given in the tables refer to the amount of active ingredient used.\n(§4) The rice seedlings were grown to the 1.7 leaf stage for infant seedlings and to the 5.5 leaf stage for ordinary seedlings. Two days after puddling the soil in which the seedlings were to be transplanted, both infant and ordinary seedlings were transplanted into plots 8.5 m^2.\n(§5) The weed symbol \"Obw\" represents \"other broadleaf weeds\" of unspecified identity. Results presented in Table 5 represent the average of 2 replications."}, "[4]": {"test_system": "weeds in upland direct-seeded rice", "experiment": "Example 7 overall", "format": "in vivo", "conditions": "particular spectrum of weeds", "description": "(§6) In a further comparative study of the preemergence activity of Herbicides A and B, a variety of weeds and upland direct-seeded rice were tested under greenhouse conditions. The present invention is not concerned with the use of Herbicide A in direct-seeded rice. The primary purpose of the experimental work in this example is to compare relative herbicidal activity of Herbicides A and B against the weeds shown in Table 7; most of these weeds were not available for tests with transplanted rice. Although the relative selectivity of these herbicides in upland rice is also evident, that aspect of the tests is more or less incidental to the purpose of this example.\nIn this example, rice seeds and seeds of the weeds shown in Table 7 were sown in Ray silt loam soil at a depth of 0.5 inch (1.27 cm) in containers for the soil in a greenhouse. Herbicides A and B were applied to the surface of the soil at a spray volume equivalent to 20 gals/acre (187.1 liters/hectare), followed by 0.5 in (1.27 cm) of overhead irrigation. Temperature and relative humidity in the greenhouse were on the order of 85°F (29°C) and 75%, respectively. Observations were made at 21-28 days after seeding. […]"}, "[5]": {"test_system": "Grass: Ec and Ecol (Echinochloa crusgalli, Echinochloa colonum)", "experiment": "Example 4 field test on ordinary rice, weed control, Munoz, Philippines", "format": "in vivo", "conditions": "obs. 36 DAT", "excerpt": "as §1"}, "[6]": {"test_system": "Sedges: Cd, Ci, Fl (Cyperus difformis, Cyperus iria, Fimbristylis littoralis)", "experiment": "Example 4 field test on ordinary rice, weed control, Munoz, Philippines", "format": "in vivo", "conditions": "obs. 36 DAT", "excerpt": "as §1"}, "[7]": {"test_system": "Ec (Echinochloa crusgalli)", "experiment": "Example 5 field test, weed control, JAAPR, Japan", "format": "in vivo", "conditions": "1.5 kg/ha, 7 DAT"}, "[8]": {"test_system": "weeds Ec, Ann. Cyp, Mv, Obw, Ea", "experiment": "Example 5 field test, average weed control, JAAPR, Japan", "conditions": "1.5 kg/ha, 7 DAT", "description": "as §2, §3, §4, §5"}, "Ce (Cyperus esculentus)": {"test_system": "Ce (Cyperus esculentus)", "experiment": "Example 7 greenhouse preemergence activity", "format": "in vivo", "description": "as §6\nIn this example, rice seeds and seeds of the weeds shown in Table 7 were sown in Ray silt loam soil at a depth of 0.5 inch (1.27 cm) in containers for the soil in a greenhouse. Herbicides A and B were applied to the surface of the soil at a spray volume equivalent to 20 gals/acre (187.1 liters/hectare), followed by 0.5 in (1.27 cm) of overhead irrigation. Temperature and relative humidity in the greenhouse were on the order of 85°F (29°C) and 75%, respectively. Observations were made at 21-28 days after seeding.\nIn Table 7 are shown the average rates of herbicide required to cause a growth reduction of 85% of the weeds (\"GR85 \"), and the average rate of herbicide required to cause a growth reduction of 15% (\"GR15 \") of the rice plants (Oryza sativa, \"Os\", variety Bluebelle)."}, "Ann. Cyp (Cyperus spp)": {"test_system": "Ann. Cyp (Cyperus spp)", "experiment": "Example 5 field test, weed control, JAAPR, Japan", "conditions": "1.5 kg/ha, 7 DAT", "description": "as §2, §3, §4, §5"}, "[9]": {"test_system": "Broadleaf: Mv, Sz (Monochoria vaginalis, Sphenoclea zeylanica)", "experiment": "Example 4 field test on ordinary rice, weed control, Munoz, Philippines", "format": "in vivo, Monochoria vaginalis and Sphenoclea zeylanica", "conditions": "obs. 36 DAT", "excerpt": "as §1"}, "[10]": {"test_system": "Mv (Monochoria vaginalis)", "experiment": "Example 5 field test, weed control, JAAPR, Japan", "format": "in vivo", "conditions": "1.5 kg/ha, 7 DAT"}, "[11]": {"test_system": "weeds in ordinary transplanted rice", "experiment": "Example 4 field test, overall weed control", "format": "in vivo", "excerpt": "as §1"}}, "data": [{"molecule": "CCCCOCN(C(=O)CCl)c1c(CC)cccc1CC", "note": "[Herbicide B, n-(butoxymethyl)-2',6'-diethyl-2-chloroacetanilide, reference compound]", "values": [{"measurement": "control of Ea in words", "setting": "[1]", "result": "complete control"}, {"measurement": "% Weed Control (Ea)", "setting": "[1]; infant seedlings", "result": 100, "unit": "%"}, {"measurement": "% Weed Control (Ea)", "setting": "[1]; ordinary seedlings", "result": 93, "unit": "%"}, {"measurement": "% Weed control, Broadleaf (Mv,Sz)", "setting": "[2]; 5 DAT, 1.0 kg/ha", "result": 100, "unit": "%"}, {"measurement": "% Weed control, Broadleaf (Mv,Sz)", "setting": "[2]; 5 DAT, 1.5 kg/ha", "result": 100, "unit": "%"}, {"measurement": "% Weed control, Broadleaf (Mv,Sz)", "setting": "[2]; 5 DAT, 3.0 kg/ha", "result": 100, "unit": "%"}, {"measurement": "% Weed control, Broadleaf (Mv,Sz)", "setting": "[2]; 14 DAT, 1.0 kg/ha", "result": 0, "unit": "%"}, {"measurement": "% Weed control, Broadleaf (Mv,Sz)", "setting": "[2]; 14 DAT, 1.5 kg/ha", "result": 0, "unit": "%"}, {"measurement": "% Weed control, Broadleaf (Mv,Sz)", "setting": "[2]; 14 DAT, 3.0 kg/ha", "result": 70, "unit": "%"}, {"measurement": "Yield % of H.W.C.", "setting": "[3]; infant seedlings", "result": 99, "unit": "%"}, {"measurement": "Yield % of H.W.C.", "setting": "[3]; ordinary seedlings", "result": 92, "unit": "%"}, {"measurement": "selectivity, A vs B, upland direct-seeded rice", "setting": "[4]", "result": "slightly more selective"}, {"measurement": "% Weed control, Grass (Ec and Ecol)", "setting": "[5]; 5 DAT, 1.0 kg/ha", "result": 100, "unit": "%"}, {"measurement": "% Weed control, Grass (Ec and Ecol)", "setting": "[5]; 5 DAT, 1.5 kg/ha", "result": 100, "unit": "%"}, {"measurement": "% Weed control, Grass (Ec and Ecol)", "setting": "[5]; 5 DAT, 3.0 kg/ha", "result": 100, "unit": "%"}, {"measurement": "% Weed control, Grass (Ec and Ecol)", "setting": "[5]; 14 DAT, 1.0 kg/ha", "result": 0, "unit": "%"}, {"measurement": "% Weed control, Grass (Ec and Ecol)", "setting": "[5]; 14 DAT, 1.5 kg/ha", "result": 0, "unit": "%"}, {"measurement": "% Weed control, Grass (Ec and Ecol)", "setting": "[5]; 14 DAT, 3.0 kg/ha", "result": 50, "unit": "%"}, {"measurement": "% Weed control, Sedges (Cd, Ci, Fl)", "setting": "[6]; 5 DAT, 1.0 kg/ha", "result": 100, "unit": "%"}, {"measurement": "% Weed control, Sedges (Cd, Ci, Fl)", "setting": "[6]; 5 DAT, 1.5 kg/ha", "result": 100, "unit": "%"}, {"measurement": "% Weed control, Sedges (Cd, Ci, Fl)", "setting": "[6]; 5 DAT, 3.0 kg/ha", "result": 100, "unit": "%"}, {"measurement": "% Weed control, Sedges (Cd, Ci, Fl)", "setting": "[6]; 14 DAT, 1.0 kg/ha", "result": 0, "unit": "%"}, {"measurement": "% Weed control, Sedges (Cd, Ci, Fl)", "setting": "[6]; 14 DAT, 1.5 kg/ha", "result": 0, "unit": "%"}, {"measurement": "% Weed control, Sedges (Cd, Ci, Fl)", "setting": "[6]; 14 DAT, 3.0 kg/ha", "result": 50, "unit": "%"}, {"measurement": "control of Ec in words", "setting": "[7]", "result": "substantially complete control"}, {"measurement": "% Weed Control (Ec)", "setting": "[7]; infant seedlings", "result": 99, "unit": "%"}, {"measurement": "% Weed Control (Ec)", "setting": "[7]; ordinary seedlings", "result": 81, "unit": "%"}, {"measurement": "% Weed Control, Avg.", "setting": "[8]; infant seedlings", "result": 93, "unit": "%"}, {"measurement": "% Weed Control, Avg.", "setting": "[8]; ordinary seedlings", "result": 86, "unit": "%"}, {"measurement": "resistance of Ce", "setting": "Ce (Cyperus esculentus)", "result": "resists"}, {"measurement": "control of Ann. Cyp in words", "setting": "Ann. Cyp (Cyperus spp)", "result": "substantially complete control"}, {"measurement": "% Weed Control (Ann. Cyp)", "setting": "Ann. Cyp (Cyperus spp); infant seedlings", "result": 100, "unit": "%"}, {"measurement": "% Weed Control (Ann. Cyp)", "setting": "Ann. Cyp (Cyperus spp); ordinary seedlings", "result": 99, "unit": "%"}, {"measurement": "% Weed control, Broadleaf (Mv,Sz)", "setting": "[9]; 5 DAT, 1.0 kg/ha", "result": 100, "unit": "%"}, {"measurement": "% Weed control, Broadleaf (Mv,Sz)", "setting": "[9]; 5 DAT, 1.5 kg/ha", "result": 100, "unit": "%"}, {"measurement": "% Weed control, Broadleaf (Mv,Sz)", "setting": "[9]; 5 DAT, 3.0 kg/ha", "result": 100, "unit": "%"}, {"measurement": "% Weed control, Broadleaf (Mv,Sz)", "setting": "[9]; 14 DAT, 1.0 kg/ha", "result": 0, "unit": "%"}, {"measurement": "% Weed control, Broadleaf (Mv,Sz)", "setting": "[9]; 14 DAT, 1.5 kg/ha", "result": 0, "unit": "%"}, {"measurement": "% Weed control, Broadleaf (Mv,Sz)", "setting": "[9]; 14 DAT, 3.0 kg/ha", "result": 50, "unit": "%"}, {"measurement": "% Weed Control (Mv)", "setting": "[10]; infant seedlings", "result": 66, "unit": "%"}, {"measurement": "% Weed Control (Mv)", "setting": "[10]; ordinary seedlings", "result": 86, "unit": "%"}, {"measurement": "control of all weeds", "setting": "[11]; 5 DAT", "result": "complete control of all weeds"}, {"measurement": "weed control in words", "setting": "[11]; 14 DAT, 1.0 and 1.5 kgs/ha", "result": "nil"}, {"measurement": "weed control", "setting": "[11]; 14 DAT, 3.0 kgs/ha", "result": 50, "unit": "%"}]}]}
